From the supplement of paper PMC10307832

How the values were obtained:
Test in all cases: relative viability (nuclei count vs DMSO), 5 days (fraction); higher = more cells survive
[1] = compound: CN1CCN(c2ccc3nc(-c4c(N)c5c(F)cccc5[nH]c4=O)[nH]c3c2)CC1 [Dovitinib] + COc1cccc2cc(-c3nc([C@H]4CC[C@H](C(=O)O)CC4)n4ncnc(N)c34)[nH]c12 [OSI-027] (partner 0.5 µM)
In short: (§1)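 Lung cancer cell lines were seeded in 1536-well plates and dosed by pin tool the next day, with either a single drug or a fixed anchor-drug dose combined with five library-drug doses (not always all listed) spaced in √10 steps. Five days later, one step fixed the cells and stained their nuclei (final 0.05% Triton X-100, 1% formaldehyde, 1 ug/ml Hoechst), and nuclei were counted on 4× images. Relative viability is the nuclei count in treated wells divided by the count in vehicle wells, and each value is the median of duplicate plates.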

[2] = compound: CN1CCN(c2ccc3nc(-c4c(N)c5c(F)cccc5[nH]c4=O)[nH]c3c2)CC1 [Dovitinib] + CS(=O)(=O)CCNCc1ccc(-c2ccc3ncnc(Nc4ccc(OCc5cccc(F)c5)c(Cl)c4)c3c2)o1 [Lapatinib] (partner 2 µM)
In short: as §1

[3] = compound: CN1CCN(c2ccc3nc(-c4c(N)c5c(F)cccc5[nH]c4=O)[nH]c3c2)CC1 [Dovitinib] + C[C@]1(O)C[C@@H](c2nc(-c3ccc4ccc(-c5ccccc5)nc4c3)c3c(N)nccn32)C1 [Linsitinib] (partner 1 µM)
In short: as §1

[4] = compound: CN1CCN(c2ccc3nc(-c4c(N)c5c(F)cccc5[nH]c4=O)[nH]c3c2)CC1 [Dovitinib] + Cc1nc(NC(=O)N2CCC[C@H]2C(N)=O)sc1-c1ccnc(C(C)(C)C(F)(F)F)c1 [Alpelisib] (partner 2 µM)
In short: as §1

Cell Line NCI-H1993 has a relative viability ([1]; first compound 0.02 µM) of 0.599, a relative viability ([1]; first compound 0.06325 µM) of 0.545 and a relative viability ([1]; first compound 0.2 µM) of 0.597. The relative viability ([1]; first compound 0.6325 µM) was 0.505, the relative viability ([1]; first compound 2 µM) was 0.573 and the relative viability ([2]; first compound 0.02 µM) was 0.853. It also gave a relative viability ([2]; first compound 0.06325 µM) of 0.803, a relative viability ([2]; first compound 0.2 µM) of 0.952 and a relative viability ([2]; first compound 0.6325 µM) of 0.799. For the same cell line, the relative viability ([2]; first compound 2 µM) was 0.731, the relative viability ([3]; first compound 0.02 µM) was 0.774 and the relative viability ([3]; first compound 0.06325 µM) was 0.678. For the same cell line, the relative viability ([3]; first compound 0.2 µM) was 0.657, the relative viability ([3]; first compound 0.6325 µM) was 0.695 and the relative viability ([3]; first compound 2 µM) was 0.808. It also gave a relative viability ([4]; first compound 0.02 µM) of 0.599, a relative viability ([4]; first compound 0.06325 µM) of 0.683 and a relative viability ([4]; first compound 0.2 µM) of 0.642. The relative viability ([4]; first compound 0.6325 µM) was 0.71 and the relative viability ([4]; first compound 2 µM) was 0.734.

NCI-H2009 gave a relative viability ([1]; first compound 0.02 µM) of 0.546, a relative viability ([1]; first compound 0.06325 µM) of 0.621 and a relative viability ([1]; first compound 0.2 µM) of 0.642. The relative viability ([1]; first compound 0.6325 µM) was 0.638, the relative viability ([1]; first compound 2 µM) was 0.611 and the relative viability ([2]; first compound 0.02 µM) was 0.768. It also gave a relative viability ([2]; first compound 0.06325 µM) of 0.954, a relative viability ([2]; first compound 0.2 µM) of 0.912 and a relative viability ([2]; first compound 0.6325 µM) of 0.928. It also gave a relative viability ([2]; first compound 2 µM) of 1.13, a relative viability ([3]; first compound 0.02 µM) of 1.16 and a relative viability ([3]; first compound 0.06325 µM) of 1.18. The relative viability ([3]; first compound 0.2 µM) was 1.15, the relative viability ([3]; first compound 0.6325 µM) was 1.2 and the relative viability ([3]; first compound 2 µM) was 1.2. It also gave a relative viability ([4]; first compound 0.02 µM) of 1.07, a relative viability ([4]; first compound 0.06325 µM) of 1.16 and a relative viability ([4]; first compound 0.2 µM) of 1.06. It also gave a relative viability ([4]; first compound 0.6325 µM) of 1.14 and a relative viability ([4]; first compound 2 µM) of 1.14.

In the case of NCI-H2023, the relative viability ([1]; first compound 0.02 µM) is reported as 0.429, the relative viability ([1]; first compound 0.06325 µM) is reported as 0.404 and the relative viability ([1]; first compound 0.2 µM) is reported as 0.476. For the same cell line, the relative viability ([1]; first compound 0.6325 µM) was 0.394, the relative viability ([1]; first compound 2 µM) was 0.362 and the relative viability ([2]; first compound 0.02 µM) was 0.778. It also gave a relative viability ([2]; first compound 0.06325 µM) of 0.739, a relative viability ([2]; first compound 0.2 µM) of 1.13 and a relative viability ([2]; first compound 0.6325 µM) of 0.918. For the same cell line, the relative viability ([2]; first compound 2 µM) was 0.808, the relative viability ([3]; first compound 0.02 µM) was 0.744 and the relative viability ([3]; first compound 0.06325 µM) was 0.638. For the same cell line, the relative viability ([3]; first compound 0.2 µM) was 0.734, the relative viability ([3]; first compound 0.6325 µM) was 0.741 and the relative viability ([3]; first compound 2 µM) was 0.595. It also gave a relative viability ([4]; first compound 0.02 µM) of 0.558, a relative viability ([4]; first compound 0.06325 µM) of 0.574 and a relative viability ([4]; first compound 0.2 µM) of 0.606. For the same cell line, the relative viability ([4]; first compound 0.6325 µM) was 0.57 and the relative viability ([4]; first compound 2 µM) was 0.523.

With NCI-H2085 the relative viability ([1]; first compound 0.02 µM) was 0.672, the relative viability ([1]; first compound 0.06325 µM) was 0.71 and the relative viability ([1]; first compound 0.2 µM) was 0.734. The relative viability ([1]; first compound 0.6325 µM) was 0.829, the relative viability ([1]; first compound 2 µM) was 0.839 and the relative viability ([2]; first compound 0.02 µM) was 0.834. The relative viability ([2]; first compound 0.06325 µM) was 0.785, the relative viability ([2]; first compound 0.2 µM) was 0.723 and the relative viability ([2]; first compound 0.6325 µM) was 0.894. The relative viability ([2]; first compound 2 µM) was 0.818, the relative viability ([3]; first compound 0.02 µM) was 0.927 and the relative viability ([3]; first compound 0.06325 µM) was 1.08. It also gave a relative viability ([3]; first compound 0.2 µM) of 1.07, a relative viability ([3]; first compound 0.6325 µM) of 0.913 and a relative viability ([3]; first compound 2 µM) of 0.917. For the same cell line, the relative viability ([4]; first compound 0.02 µM) was 1.05, the relative viability ([4]; first compound 0.06325 µM) was 0.987 and the relative viability ([4]; first compound 0.2 µM) was 0.88. For the same cell line, the relative viability ([4]; first compound 0.6325 µM) was 0.936 and the relative viability ([4]; first compound 2 µM) was 1.03.

In the case of NCI-H2087, the relative viability ([1]; first compound 0.02 µM) is reported as 0.57, the relative viability ([1]; first compound 0.06325 µM) is reported as 0.487 and the relative viability ([1]; first compound 0.2 µM) is reported as 0.757. For the same cell line, the relative viability ([1]; first compound 0.6325 µM) was 0.484, the relative viability ([1]; first compound 2 µM) was 0.554 and the relative viability ([2]; first compound 0.02 µM) was 0.893. It also gave a relative viability ([2]; first compound 0.06325 µM) of 0.958, a relative viability ([2]; first compound 0.2 µM) of 1.01 and a relative viability ([2]; first compound 0.6325 µM) of 1.02. For the same cell line, the relative viability ([2]; first compound 2 µM) was 1.16, the relative viability ([3]; first compound 0.02 µM) was 0.953 and the relative viability ([3]; first compound 0.06325 µM) was 0.943. For the same cell line, the relative viability ([3]; first compound 0.2 µM) was 1.09, the relative viability ([3]; first compound 0.6325 µM) was 1 and the relative viability ([3]; first compound 2 µM) was 0.825. The relative viability ([4]; first compound 0.02 µM) was 1.35, the relative viability ([4]; first compound 0.06325 µM) was 1.31 and the relative viability ([4]; first compound 0.2 µM) was 1.02. It also gave a relative viability ([4]; first compound 0.6325 µM) of 0.989 and a relative viability ([4]; first compound 2 µM) of 1.01.

NCI-H2126 showed a relative viability ([1]; first compound 0.02 µM) of 0.74, a relative viability ([1]; first compound 0.2 µM) of 0.855 and a relative viability ([1]; first compound 0.6325 µM) of 0.699. The relative viability ([1]; first compound 2 µM) was 0.638, the relative viability ([2]; first compound 0.02 µM) was 0.692 and the relative viability ([2]; first compound 0.06325 µM) was 0.726. It also gave a relative viability ([2]; first compound 0.2 µM) of 0.744, a relative viability ([2]; first compound 0.6325 µM) of 0.734 and a relative viability ([2]; first compound 2 µM) of 0.797. It also gave a relative viability ([3]; first compound 0.02 µM) of 0.697, a relative viability ([3]; first compound 0.06325 µM) of 0.691 and a relative viability ([3]; first compound 0.2 µM) of 0.748. The relative viability ([3]; first compound 0.6325 µM) was 0.747, the relative viability ([3]; first compound 2 µM) was 0.696 and the relative viability ([4]; first compound 0.02 µM) was 0.761. The relative viability ([4]; first compound 0.06325 µM) was 0.72, the relative viability ([4]; first compound 0.2 µM) was 0.716 and the relative viability ([4]; first compound 0.6325 µM) was 0.769. For the same cell line, the relative viability ([4]; first compound 2 µM) was 0.695.

In the case of NCI-H2228, the relative viability ([1]; first compound 0.02 µM) is reported as 0.638, the relative viability ([1]; first compound 0.06325 µM) is reported as 0.533 and the relative viability ([1]; first compound 0.2 µM) is reported as 0.512. For the same cell line, the relative viability ([1]; first compound 0.6325 µM) was 0.681, the relative viability ([1]; first compound 2 µM) was 0.635 and the relative viability ([2]; first compound 0.02 µM) was 1.18. The relative viability ([2]; first compound 0.06325 µM) was 0.942, the relative viability ([2]; first compound 0.2 µM) was 0.991 and the relative viability ([2]; first compound 0.6325 µM) was 1.08. It also gave a relative viability ([2]; first compound 2 µM) of 0.831, a relative viability ([3]; first compound 0.02 µM) of 0.789 and a relative viability ([3]; first compound 0.06325 µM) of 0.632. The relative viability ([3]; first compound 0.2 µM) was 0.669, the relative viability ([3]; first compound 0.6325 µM) was 0.967 and the relative viability ([3]; first compound 2 µM) was 0.633. For the same cell line, the relative viability ([4]; first compound 0.02 µM) was 0.997, the relative viability ([4]; first compound 0.06325 µM) was 0.674 and the relative viability ([4]; first compound 0.2 µM) was 0.61. It also gave a relative viability ([4]; first compound 0.6325 µM) of 0.837 and a relative viability ([4]; first compound 2 µM) of 0.565.

With NCI-H2347 the relative viability ([1]; first compound 0.02 µM) was 0.568, the relative viability ([1]; first compound 0.06325 µM) was 0.265 and the relative viability ([1]; first compound 0.2 µM) was 0.471. For the same cell line, the relative viability ([1]; first compound 0.6325 µM) was 0.545, the relative viability ([1]; first compound 2 µM) was 0.529 and the relative viability ([2]; first compound 0.02 µM) was 0.588. For the same cell line, the relative viability ([2]; first compound 0.06325 µM) was 0.882, the relative viability ([2]; first compound 0.2 µM) was 1 and the relative viability ([2]; first compound 0.6325 µM) was 0.924. The relative viability ([2]; first compound 2 µM) was 0.967, the relative viability ([3]; first compound 0.02 µM) was 0.997 and the relative viability ([3]; first compound 0.06325 µM) was 0.892. For the same cell line, the relative viability ([3]; first compound 0.2 µM) was 0.953, the relative viability ([3]; first compound 0.6325 µM) was 0.978 and the relative viability ([3]; first compound 2 µM) was 0.969. For the same cell line, the relative viability ([4]; first compound 0.02 µM) was 1.11, the relative viability ([4]; first compound 0.06325 µM) was 0.988 and the relative viability ([4]; first compound 0.2 µM) was 1.08. It also gave a relative viability ([4]; first compound 0.6325 µM) of 1.09 and a relative viability ([4]; first compound 2 µM) of 1.09.
